From US20240243319A1, “AQUEOUS ELECTROLYTE, SALTS USED THEREIN, AND REDOX FLOW BATTERY USING SAID AQUEOUS ELECTROLYTE” (MITSUBISHI CHEMICAL CORPORATION, priority 2021, published 2024)

Assay: Dissolution test in 1 M chloride salt aqueous solutions
Type: physicochemical
Settings: potassium chloride, lithium chloride and ammonium chloride aqueous solution, room temperature
[1] = 0.01 mmol added to 10 mL each of 1 M sodium chloride

Row | Structure (SMILES) | dissolution in aqueous salt solutions [1] | dissolution in aqueous salt solutions (0.05 mmol added to 10 mL each of 1 M sodium chloride)
1 | O=C1c2ccccc2C(=O)c2c1cc(S(=O)(=O)[O-])c(O)c2O.[Na+] [Alizarin Red S, reference compound] | did not dissolve | –
2 | O=C(O)c1ccc2nc3cc(O)c(O)cc3nc2c1 [compound represented by formula (1a-1)] | – | did not dissolve
3 | O=C(O)c1ccc2c(c1)C(=O)c1c(O)ccc(O)c1C2=O [compound represented by formula (2a-1)] | did not dissolve | –
